Measurements taken from ChEMBL document CHEMBL1156500, “Characterization of the metabolic activation of hepatitis C virus nucleoside inhibitor beta-D-2'-Deoxy-2'-fluoro-2'-C-methylcytidine (PSI-6130) and identification of a novel active 5'-triphosphate species” (J Biol Chem, 2007).

System: Hepatitis C virus
Test: Inhibition of RNA synthesis activity of […]
Conditions: Hepatitis C virus subtype 1b; Con1

With `Nc1ccn([C@@H]2O[C@H](COP(=O)(O)OP(=O)(O)OP(=O)(O)O)[C@@H](O)[C@H]2O)c(=O)n1` the Km was 0.22 µM.
